Laboratory results as given in the supplement of paper PMC4858399.
Counter-ions that a name gives are not always drawn.

Columns and labels:
Conditions in all cases: exposure time 48 h
[1] = test system: Caenorhabditis elegans N2; test: AC50 for larval growth inhibition (Hill fit); higher = less potent
Summary of the method: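 After 48 h at 20°C in K-medium with killed OP50, 1% DMSO and 0.5–200 µM chemical, synchronised C. elegans N2 L1 larvae (50 per well, 96-well plates) were sized individually as extinction on a COPAS Biosort. These values were log-transformed and averaged per well, and wells with fewer than 10 worms were excluded. The AC50 was derived from a constrained Hill fit by weighted genetic-algorithm regression, and out-of-range values are censored.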

[2] = test system: Caenorhabditis elegans N2; test: mean nematode size ln(EXT) after 48 h, plate-adjusted (DMSO control set to 6) (ln(EXT), control-adjusted); higher = larger nematodes / less growth inhibition
Summary of the method: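 Worms were measured individually for extinction on the Biosort after 48 h at 20°C. They began as synchronised C. elegans N2 L1 larvae in K-medium with killed OP50, 1% DMSO and 0.5–200 µM chemical. Once debris had been removed by a growth model, values were natural-logged and averaged per well to give mean size. The plate adjustment subtracted the vehicle control mean and added 6.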

[3] = test system: Caenorhabditis elegans N2; test: lowest effective concentration for larval growth inhibition (size below effect threshold); higher = less potent
Summary of the method: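 L1 larvae of C. elegans N2 (50 per 96-well) were grown in K-medium with killed bacteria and 1% DMSO, with the chemical at 0.5, 1, 5, 10, 50, 100 or 200 µM, for 48 h at 20°C. Per-worm extinction from the Biosort stood for size and was log-transformed into well means. For each chemical, the lowest effective concentration is the first dose where plate-adjusted mean size falls under the threshold and stays under it at the higher doses, using a threshold of 5.665.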

| Structure (SMILES) | AC50 for larval growth inhibition [1] [µM] | mean nematode size ln(EXT) (ln) ([2]; 0.5 µM) | mean nematode size ln(EXT) (ln) ([2]; 1 µM) | mean nematode size ln(EXT) (ln) ([2]; 5 µM) | mean nematode size ln(EXT) (ln) ([2]; 10 µM) | mean nematode size ln(EXT) (ln) ([2]; 50 µM) | mean nematode size ln(EXT) (ln) ([2]; 100 µM) | mean nematode size ln(EXT) (ln) ([2]; 200 µM) | lowest effective concentration [3] [µM] |
| --- | --- | --- | --- | --- | --- | --- | --- | --- | --- |
| CC(C)=CC1C(C(=O)OCc2coc(Cc3ccccc3)c2)C1(C)C (configuration not stated) [Resmethrin] | > 200 | 5.75 | 5.64 | 5.46 | 5.58 | 5.84 | 5.8 | 4.98 | 200 |
| O=S(=O)(O)C(F)(F)C(F)(F)C(F)(F)C(F)(F)C(F)(F)C(F)(F)C(F)(F)C(F)(F)F [Perfluorooctane sulfonic acid] | 17.4 | 5.78 | 5.91 | 5.28 | 5.06 | 4.32 | 4.28 | 3.33 | 5 |
| c1ccc(NNc2ccccc2)cc1 [1,2-Diphenylhydrazine] | 78.8 | 5.81 | 5.72 | 5.71 | 5.69 | 5.22 | 4.11 | 3.42 | 50 |
| CCCCOC(=O)c1ccc(O)cc1 [Butylparaben] | 103 | 5.84 | 5.8 | 5.75 | 5.78 | 5.96 | 5.68 | 5.19 | 200 |
| CC[C@H](C)[C@@H](C(=O)O)n1sc2ccccc2c1=O | 105 | 5.91 | 6.12 | 6.17 | 6.14 | 6.07 | 5.94 | 5.59 | 200 |
| COS(=O)(=O)OC [Dimethyl sulfate] | 61.5 | 5.83 | 5.97 | 6.03 | 5.92 | 5.98 | 5.28 | 5.61 | 100 |
| O=C(O)CC(O)C(=O)O (configuration not stated) [2-Hydroxybutanedioic acid] | > 200 | 5.83 | 5.82 | 5.8 | 5.81 | 5.83 | 5.61 | 5.58 | 100 |
| COc1cccc(-c2ccc(/C=C\CN3CCCCCC3)cc2Cl)c1 | 90.6 | 5.88 | 5.69 | 5.61 | 5.5 | 4.98 | 4.39 | – | 5 |
| COc1ccc(C(=CC(=O)N2CCOCC2)c2ccc(Cl)cc2)cc1OC [Dimethomorph] | 117 | 6 | 5.98 | 6.05 | 6.03 | 5.92 | 5.54 | 4.95 | 100 |
| CN(C)c1ccc(N=NS(=O)(=O)O)cc1 [Fenaminosulf] | 54.8 | 5.95 | 5.88 | 5.79 | 5.86 | 4.72 | 3.9 | 3.5 | 50 |
| Cc1cc(NC(=O)C(=O)O)cc(C)c1Oc1ccc(O)c2c1CCC2 | > 200 | 5.86 | 5.81 | 5.88 | 5.83 | 5.84 | 5.76 | 5.58 | 200 |
| COCCOCCOCCOC [Triethylene glycol dimethyl ether] | > 200 | 5.75 | 6.01 | 5.91 | 5.91 | 5.72 | 5.81 | 5.64 | 200 |
